According to the supplement of paper PMC11424490:

Assays:
[1] = system: NCI-H2122; test: combination cScore with sotorasib (Bliss gap around IC50) (%PoC); higher = stronger additive effect
Procedure: (§1)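 Combination screen of 179 inhibitors with the KRAS G12C inhibitor sotorasib (AMG510) in dose matrices, CellTiter-Glo readout in NCI-H2122 (72 h), SW837 (144 h) and NCI-H358 cells. The cScore is the mean Bliss-independence gap (expected minus observed viability, in %PoC) over a 3x3 field around the IC50s of both drugs. Positive means additive, and >~10 is stated as clear additive.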

[2] = system: SW837; test: as above
Procedure: as §1

Row | SMILES | combination cScore with sotorasib [1] | combination cScore with sotorasib [2]
1 | C[C@H](CS)C(=O)N1CCC[C@H]1C(=O)O [Captopril] + C=CC(=O)N1CCN(c2nc(=O)n(-c3c(C)ccnc3C(C)C)c3nc(-c4c(O)cccc4F)c(F)cc23)[C@@H](C)C1 [sotorasib] | 1.43 | -0.1
2 | NC(=O)Nc1cc(-c2cccc(F)c2)sc1C(=O)N[C@H]1CCCNC1 [AZD-7762] + C=CC(=O)N1CCN(c2nc(=O)n(-c3c(C)ccnc3C(C)C)c3nc(-c4c(O)cccc4F)c(F)cc23)[C@@H](C)C1 [sotorasib] | 2.45 | 6.36
3 | CCCC(CCC)C(=O)O [Valproic acid] + C=CC(=O)N1CCN(c2nc(=O)n(-c3c(C)ccnc3C(C)C)c3nc(-c4c(O)cccc4F)c(F)cc23)[C@@H](C)C1 [sotorasib] | -1.96 | -2.1
4 | Nc1nc(Nc2ccc3c(c2)CC[C@@H](N2CCCC2)CC3)nn1-c1cc2c(nn1)-c1ccccc1CCC2 [Bemcentinib] + C=CC(=O)N1CCN(c2nc(=O)n(-c3c(C)ccnc3C(C)C)c3nc(-c4c(O)cccc4F)c(F)cc23)[C@@H](C)C1 [sotorasib] | -5 | 4.27
5 | CCc1cccc(CC)c1NC(=O)c1nn(C)c2c1CCc1cnc(Nc3ccc(C(=O)NC4CCN(C)CC4)cc3OC(F)(F)F)nc1-2 [NMS-P715] + C=CC(=O)N1CCN(c2nc(=O)n(-c3c(C)ccnc3C(C)C)c3nc(-c4c(O)cccc4F)c(F)cc23)[C@@H](C)C1 [sotorasib] | 2.28 | 13.2
6 | COc1ccc(Cn2ccc3ccc(C(=O)NO)cc32)cc1 + C=CC(=O)N1CCN(c2nc(=O)n(-c3c(C)ccnc3C(C)C)c3nc(-c4c(O)cccc4F)c(F)cc23)[C@@H](C)C1 [sotorasib] | 0.89 | 10.9
7 | O=C(/C=C\n1cnc(-c2cc(C(F)(F)F)cc(C(F)(F)F)c2)n1)NNc1cnccn1 [KPT-330] + C=CC(=O)N1CCN(c2nc(=O)n(-c3c(C)ccnc3C(C)C)c3nc(-c4c(O)cccc4F)c(F)cc23)[C@@H](C)C1 [sotorasib] | 3.63 | 0.325
8 | C[C@]12CC[C@@H]3c4ccc(O)cc4C[C@@H](CCCCCCCCC[S+]([O-])CCCC(F)(F)C(F)(F)F)[C@H]3[C@@H]1CC[C@@H]2O (stereo partly drawn) [Fulvestrant] + C=CC(=O)N1CCN(c2nc(=O)n(-c3c(C)ccnc3C(C)C)c3nc(-c4c(O)cccc4F)c(F)cc23)[C@@H](C)C1 [sotorasib] | 8.41 | 1.95
9 | C=C(c1ccc(C(=O)O)cc1)c1cc2c(cc1C)C(C)(C)CCC2(C)C [Bexarotene] + C=CC(=O)N1CCN(c2nc(=O)n(-c3c(C)ccnc3C(C)C)c3nc(-c4c(O)cccc4F)c(F)cc23)[C@@H](C)C1 [sotorasib] | 14.2 | -2.93
10 | Cn1nnc2c(C(N)=O)ncn2c1=O [Temozolomide] + C=CC(=O)N1CCN(c2nc(=O)n(-c3c(C)ccnc3C(C)C)c3nc(-c4c(O)cccc4F)c(F)cc23)[C@@H](C)C1 [sotorasib] | 6.39 | -4.91
11 | Nc1ncn([C@H]2C[C@H](O)[C@@H](CO)O2)c(=O)n1 [Decitabine] + C=CC(=O)N1CCN(c2nc(=O)n(-c3c(C)ccnc3C(C)C)c3nc(-c4c(O)cccc4F)c(F)cc23)[C@@H](C)C1 [sotorasib] | 1 | 0.84
12 | CC(=O)[C@]1(O)Cc2c(O)c3c(c(O)c2[C@@H](O[C@H]2C[C@H](N)[C@H](O)[C@H](C)O2)C1)C(=O)c1ccccc1C3=O [Idarubicin] + C=CC(=O)N1CCN(c2nc(=O)n(-c3c(C)ccnc3C(C)C)c3nc(-c4c(O)cccc4F)c(F)cc23)[C@@H](C)C1 [sotorasib] | 8.08 | 5.83
13 | CO[C@H]1/C=C/C[C@H](C)[C@@H](C)S(=O)(=O)NC(=O)c2ccc3c(c2)N(C[C@@H]2CC[C@H]21)C[C@@]1(CCCc2cc(Cl)ccc21)CO3 [AMG176] + C=CC(=O)N1CCN(c2nc(=O)n(-c3c(C)ccnc3C(C)C)c3nc(-c4c(O)cccc4F)c(F)cc23)[C@@H](C)C1 [sotorasib] | 17.3 | 2.13
14 | Nc1nc2[nH]cc(CCc3ccc(C(=O)N[C@@H](CCC(=O)O)C(=O)O)cc3)c2c(=O)[nH]1 [Pemetrexed] + C=CC(=O)N1CCN(c2nc(=O)n(-c3c(C)ccnc3C(C)C)c3nc(-c4c(O)cccc4F)c(F)cc23)[C@@H](C)C1 [sotorasib] | 1.36 | 16.4
15 | Cn1c(=O)n(-c2ccc(C(C)(C)C#N)cc2)c2c3cc(-c4cnc5ccccc5c4)ccc3ncc21 [NVP-BEZ235] + C=CC(=O)N1CCN(c2nc(=O)n(-c3c(C)ccnc3C(C)C)c3nc(-c4c(O)cccc4F)c(F)cc23)[C@@H](C)C1 [sotorasib] | 12 | 7.37
16 | CNC(=O)c1cc(Oc2ccc(NC(=O)Nc3ccc(Cl)c(C(F)(F)F)c3)cc2)ccn1 [Sorafenib] + C=CC(=O)N1CCN(c2nc(=O)n(-c3c(C)ccnc3C(C)C)c3nc(-c4c(O)cccc4F)c(F)cc23)[C@@H](C)C1 [sotorasib] | 4.75 | -8.41
17 | Cc1cc(Nc2nc(N[C@@H](C)c3ncc(F)cn3)ncc2Cl)[nH]n1 [AZD-1480] + C=CC(=O)N1CCN(c2nc(=O)n(-c3c(C)ccnc3C(C)C)c3nc(-c4c(O)cccc4F)c(F)cc23)[C@@H](C)C1 [sotorasib] | 5.41 | -5.71
18 | COc1cc2c(NC3CCN(C(C)C)CC3)nc(C3CCCCC3)nc2cc1OCCCN1CCCC1 [UNC0638] + C=CC(=O)N1CCN(c2nc(=O)n(-c3c(C)ccnc3C(C)C)c3nc(-c4c(O)cccc4F)c(F)cc23)[C@@H](C)C1 [sotorasib] | -0.46 | 9.19
19 | O=[N+]([O-])c1ccc(NCCNc2ncc(-c3ncc[nH]3)c(-c3ccc(Cl)cc3Cl)n2)nc1 + C=CC(=O)N1CCN(c2nc(=O)n(-c3c(C)ccnc3C(C)C)c3nc(-c4c(O)cccc4F)c(F)cc23)[C@@H](C)C1 [sotorasib] | -9.14 | 3.71
20 | Cc1[nH]c(/C=C2\C(=O)Nc3ccc(S(=O)(=O)Cc4c(Cl)cccc4Cl)cc32)c(C)c1C(=O)N1CCC[C@@H]1CN1CCCC1 + C=CC(=O)N1CCN(c2nc(=O)n(-c3c(C)ccnc3C(C)C)c3nc(-c4c(O)cccc4F)c(F)cc23)[C@@H](C)C1 [sotorasib] | 0.62 | -0.04
21 | CC1=C(/C=C/C(C)=C/C=C/C(C)=C/C(=O)O)C(C)(C)CCC1 [Tretinoin] + C=CC(=O)N1CCN(c2nc(=O)n(-c3c(C)ccnc3C(C)C)c3nc(-c4c(O)cccc4F)c(F)cc23)[C@@H](C)C1 [sotorasib] | 10.5 | 15.7
22 | O=C(O)C(=O)O.[NH-][C@@H]1CCCC[C@H]1[NH-].[Pt+2] [Oxaliplatin] + C=CC(=O)N1CCN(c2nc(=O)n(-c3c(C)ccnc3C(C)C)c3nc(-c4c(O)cccc4F)c(F)cc23)[C@@H](C)C1 [sotorasib] | 13.8 | 3.16
23 | CC(C)NC[C@@H](C(=O)N1CCN(c2ncnc3c2[C@H](C)C[C@H]3O)CC1)c1ccc(Cl)cc1 [Ipatasertib] + C=CC(=O)N1CCN(c2nc(=O)n(-c3c(C)ccnc3C(C)C)c3nc(-c4c(O)cccc4F)c(F)cc23)[C@@H](C)C1 [sotorasib] | 12.3 | 11.4
24 | CC(C)(C)c1cc(NC(=O)Nc2ccc(-c3cn4c(n3)sc3cc(OCCN5CCOCC5)ccc34)cc2)no1 [Quizartinib] + C=CC(=O)N1CCN(c2nc(=O)n(-c3c(C)ccnc3C(C)C)c3nc(-c4c(O)cccc4F)c(F)cc23)[C@@H](C)C1 [sotorasib] | -1.22 | -4.13
25 | CO[C@H]1C[C@@H]2CC[C@@H](C)[C@@](O)(O2)C(=O)C(=O)N2CCCC[C@H]2C(=O)O[C@H]([C@H](C)C[C@@H]2CC[C@@H](O)[C@H](OC)C2)CC(=O)[C@H](C)/C=C(\C)[C@@H](O)[C@@H](OC)C(=O)[C@H](C)C[C@H](C)/C=C/C=C/C=C/1C [Rapamycin] + C=CC(=O)N1CCN(c2nc(=O)n(-c3c(C)ccnc3C(C)C)c3nc(-c4c(O)cccc4F)c(F)cc23)[C@@H](C)C1 [sotorasib] | 13.4 | 10.2
26 | O=C(CCCCCCC(=O)Nc1ccccc1)NO [Vorinostat] + C=CC(=O)N1CCN(c2nc(=O)n(-c3c(C)ccnc3C(C)C)c3nc(-c4c(O)cccc4F)c(F)cc23)[C@@H](C)C1 [sotorasib] | 8.52 | 14.9
27 | Nc1nc(F)nc2c1ncn2[C@@H]1O[C@H](CO)[C@@H](O)[C@@H]1O [Fludarabine] + C=CC(=O)N1CCN(c2nc(=O)n(-c3c(C)ccnc3C(C)C)c3nc(-c4c(O)cccc4F)c(F)cc23)[C@@H](C)C1 [sotorasib] | 9.97 | -1.86
28 | CN(Cc1cnc2nc(N)nc(N)c2n1)c1ccc(C(=O)N[C@@H](CCC(=O)O)C(=O)O)cc1 [Methotrexate] + C=CC(=O)N1CCN(c2nc(=O)n(-c3c(C)ccnc3C(C)C)c3nc(-c4c(O)cccc4F)c(F)cc23)[C@@H](C)C1 [sotorasib] | -3.03 | -3.51
29 | C[C@H](Cc1ccc(O)c(O)c1)[C@@H](C)Cc1ccc(O)c(O)c1 [Masoprocol] + C=CC(=O)N1CCN(c2nc(=O)n(-c3c(C)ccnc3C(C)C)c3nc(-c4c(O)cccc4F)c(F)cc23)[C@@H](C)C1 [sotorasib] | -1.02 | 1.64
